These results are taken from ChEMBL document CHEMBL3507680, “University of Dundee, Gates Library screen for HepG2 cell viability”.

The structures appear in SMILES notation.

The series is described as follows: Human HepG2 cell viability assay in 384 well format. It is filed as toxicity, cell-based. Further details: dose 125 nL, time 70.5 hour; cytotoxicity at 70.5 h: concentration not given beside the values. The note with it: HepG2 cells, read-out: Inhibition.

Consider `Cc1cc(=O)[nH]c(-n2nc(C)c(CCC(=O)NCc3cccs3)c2C)n1`, for which the cytotoxicity at 70.5 h is -0.337%. With `CCN(CC)CCSc1nnc(N2CCN(c3ccc(F)cc3)CC2)s1` the figure was -5.54%; with `CCSc1nnc(N2CCN(c3ccccc3)CC2)s1`, 0.78%; with `CCN(CC)CCSc1nnc(N2CCN(c3ccccc3)CC2)s1`, -2.44%.

As for `Cc1nnc(C2CCN(C(=O)c3ccc(-n4cccc4)cc3)CC2)s1`, the cytotoxicity at 70.5 h worked out at 28%. For the molecule `COc1nn(C)cc1C(=O)N1CCC(c2nnc(C(C)C)o2)CC1`, the cytotoxicity at 70.5 h was -4.14%. `CC(C)n1cc(C(=O)NCCN(C)C)c2n[nH]c(=O)c-2c1`: the cytotoxicity at 70.5 h came to 1.2%.

On to `COCCCNC(=O)c1cn(C(C)C)cc2c(=O)[nH]nc1-2`, for which the cytotoxicity at 70.5 h was -9.87%. As for `COCC(C)NC(=O)c1cn(C(C)C)cc2c(=O)[nH]nc1-2` (configuration not stated), the cytotoxicity at 70.5 h was -6.59%. With `CCCc1noc(C2CC(=O)N(Cc3ccccc3)C2)n1` (configuration not stated) the figure was -8.97%; with `Cc1nn(C2CCS(=O)(=O)C2)c(C)c1CC(=O)NCc1ccccc1Cl` (configuration not stated), -4.52%; with `O=C(Nc1nc2c(s1)CCC2)NC1CCCC1`, -9.48%. With `COCCc1nnc(NC(=O)CSCc2ccccc2)o1` the figure was 1.82%; with `Cc1nccn1CC1CCN(C(=O)Cc2ccccc2)CC1`, 24.1%. With `O=S(=O)(C1CC1)N1CCC(Cn2cccn2)CC1` the figure was -7.23%. Take `CCNC(=O)N1CCN(c2nc3ccccc3n2C)CC1`: the cytotoxicity at 70.5 h is -3.78%. On to `COCC(=O)N1CCC(c2ccc(OC)cc2)C1` (configuration not stated), for which the cytotoxicity at 70.5 h is -16.3%. With `COc1nn(C)cc1C(=O)N1CCC(c2ccccc2)C1` (configuration not stated) the figure was -1.63%; with `CN1CCC(CNC(=O)NCc2ccc(F)cc2)CC1`, -1.23%; with `COc1ccccc1S(=O)(=O)NCC(c1cccn1C)N(C)C` (configuration not stated), -2.15%. Turning to `Cn1cccc1CN(C(=O)Cc1cccs1)C1CC1`, the cytotoxicity at 70.5 h is -2.78%. With `Cn1cccc1C(O)CNC(=O)COc1ccccc1F` (configuration not stated) the figure was -8.88%. As for `Cn1cccc1C(O)CNC(=O)c1ccc2nsnc2c1` (configuration not stated), the cytotoxicity at 70.5 h is -14.5%. With `COc1cc(C)c(C)cc1S(=O)(=O)NCC(O)c1cccn1C` (configuration not stated) the figure was -5.03%. `COc1ccc(S(=O)(=O)NCC(O)c2sccc2C)cc1C` (configuration not stated): the cytotoxicity at 70.5 h was -3.59%. For the molecule `O=C(Cc1ccc(F)cc1)NCC(O)(c1cccs1)C1CC1` (configuration not stated), the cytotoxicity at 70.5 h came out at 13.2%. With `O=C(NCC(O)(c1cccs1)C1CC1)NC1CCCCC1` (configuration not stated) the figure was 10.9%; with `Cc1noc(C)c1S(=O)(=O)NCC(C)(O)c1ccc2c(c1)OCO2` (configuration not stated), -3.11%. Take `COc1ccc(CC(C)(O)CNC(=O)Cc2ccc(F)cc2)cc1` (configuration not stated): the cytotoxicity at 70.5 h is -21%. With `CC(O)(CCc1ccccc1)CNC(=O)c1cccs1` (configuration not stated) the figure was -3.94%. With `COc1ccc(C(=O)NCC(C)(O)CCc2ccccc2)cc1` (configuration not stated) the figure was 3.78%; with `O=C(NCC1(O)CCc2ccccc21)Nc1ccc2c(c1)OCO2` (configuration not stated), -3.18%.

For the molecule `Cc1ccc(NC(=O)NCC2(O)CCCC2)cc1C`, the cytotoxicity at 70.5 h was -1.58%. With `COc1ccc(S(=O)(=O)NCCC(O)c2ccccc2)c(C)c1` (configuration not stated) the figure was -8.64%; with `CCOc1ccc(NC(=O)NCC(C)(O)c2cccs2)cc1` (configuration not stated), -8.04%; with `O=C(NCCc1ccccc1)NCC(O)c1cccs1` (configuration not stated), -14%.

Take `CC(O)(CNC(=O)c1c(F)cccc1Cl)c1ccco1` (configuration not stated): the cytotoxicity at 70.5 h amounted to 29.8%.

As to `CCCS(=O)(=O)N1CCN(CC(F)(F)F)CC1`, the cytotoxicity at 70.5 h is -5.82%.

`Cc1nc(C)c(CC(=O)NCc2ccc(F)cc2F)s1`: the cytotoxicity at 70.5 h is -11.3%.

Regarding `Cc1ccnc(OCC(=O)N2CCCC2)n1`, the cytotoxicity at 70.5 h is -0.226%.

As to `COc1ccc(N2CCN(C(=O)COc3nccc(C)n3)CC2)cc1`, the cytotoxicity at 70.5 h was -3.87%. With `CN(CC(=O)NCC(F)(F)F)C(=O)c1ccc(=O)[nH]c1` the figure was -8.21%; with `Cc1cc(NC(=O)Cn2cnc(-c3cccs3)cc2=O)sn1`, 11.1%. With `COc1nn(C)cc1C(=O)NCC(=O)NCc1cccnc1` the figure was -2.92%; with `O=S(=O)(c1cccnc1)N1CCN(CC(O)c2cccs2)CC1` (configuration not stated), -1.48%; with `CCS(=O)(=O)N1CC(c2nc(-c3ccncc3)no2)C1`, -2.55%. In the case of `O=C(c1ccccn1)N1CC[C@H]2C(=O)N(c3ccsc3)CCO[C@H]2C1`, the cytotoxicity at 70.5 h was -15.7%.

In the case of `COc1cc(N2CCc3ncnc(-c4ccoc4)c3CC2)ncn1`, the cytotoxicity at 70.5 h was -7.42%. With `CNC(=O)[C@H]1CC[C@@H]2[C@@H](CCN2c2ncccn2)O1`, the cytotoxicity at 70.5 h was 3.25%. For `Cc1cc(CN2C[C@H]3CCC[C@@]3(COCC(=O)N3CCCC3)C2)no1`, the cytotoxicity at 70.5 h was -4.89%. As for `CNC(=O)N1CCN(C(=O)C(C)C)CC2(CC(=O)N(C)C2)C1` (configuration not stated), the cytotoxicity at 70.5 h is -5.77%. With `Cn1cccc1C(=O)N1CCC2(CC1)CCN2S(C)(=O)=O` the figure was -4.8%. `Cn1cccc1C(=O)N1CCC2(CCCN2S(C)(=O)=O)CC1`: the cytotoxicity at 70.5 h is -8.2%.

As to `Cc1oncc1C(=O)N1CC[C@H]2CO[C@H](CN3CCCC3)[C@H]2C1`, the cytotoxicity at 70.5 h is -7.95%. With `COc1cc(N2CC[C@H]3OCC[C@@]3(COc3nccc(C)n3)C2)ncn1` the figure was -17.3%; with `CCN1CC2(CC1=O)CN(C(=O)C(C)C)CCN(S(=O)(=O)CC)C2` (configuration not stated), -4.9%. As to `CN(C)C(=O)N1CC2(CCN(S(=O)(=O)C3CC3)CC2)c2ccccc21`, the cytotoxicity at 70.5 h worked out at 0.848%.

For `Cc1nc(C)c2c(n1)CCN(Cc1ccsc1)CC2`, the cytotoxicity at 70.5 h was -0.781%. With `O=C(Cc1cccs1)N1CCC2(CCCN(CC3CCOCC3)C2)C1` (configuration not stated) the figure was -6.08%; with `CCCS(=O)(=O)N1CCC2(CC1)CN(C(=O)N(C)C)c1ccccc12`, -10.2%. With `O=S(=O)(C1CC1)N1CCCC2(COCCN(c3nncs3)C2)C1` (configuration not stated) the figure was 12.7%; with `O=C(C1CCC2(CCN(c3nncs3)CC2)C1)N1CCCC1` (configuration not stated), 9.17%; with `CO[C@@H]1CC[C@H]2[C@H]1OCCN2S(=O)(=O)c1cn(C)cn1`, 0.221%.

Consider `Cc1cccc(N2CC[C@@H]3[C@@H](CO[C@H]3CNC(=O)c3ccco3)C2)n1`, for which the cytotoxicity at 70.5 h is -0.126%. Regarding `O=C(NCc1ccccc1)N1C[C@H]2C[C@H](C(=O)N3CCCC3)[C@@H](C1)O2`, the cytotoxicity at 70.5 h is -5.41%. With `CC(C)C(=O)N1CCC12CCCN(C(=O)c1ccccc1)C2` (configuration not stated) the figure was -2.99%; with `CC(C)CNC(=O)c1nc2c(s1)CCN(C(=O)c1cccnc1)CC2`, -4.69%. With `O=C(C1CCC2(CCN(c3ncccn3)CC2)CO1)N1CCCC1` (configuration not stated) the figure was -5.27%; with `Cc1cc(C(=O)NCCN2CCN(S(C)(=O)=O)CC2)no1`, -10.9%; with `CCCc1nnsc1C(=O)N1CCN(CC(C)O)CC1` (configuration not stated), -1.92%. With `O=C(NCc1ccc(Cl)cc1)N1CCN(CC(O)C2CC2)CC1` (configuration not stated) the figure was -8.1%. As for `O=C(NCc1ccc(F)cc1)N1CCN(CC(O)C2CC2)CC1` (configuration not stated), the cytotoxicity at 70.5 h was -2.01%.

For `OC(CN1CCN(Cc2cc(F)ccc2F)CC1)C1CC1` (configuration not stated), the cytotoxicity at 70.5 h was 0.724%. Consider `OC(CN1CCN(Cc2cc(F)cc(F)c2)CC1)C1CC1` (configuration not stated), for which the cytotoxicity at 70.5 h was 28.5%. With `COCCN1CCOCC12CCN(C(=O)Cc1cccs1)CC2` the figure was -6.94%. With `CC1CCN(C(=O)[C@H]2C[C@@H]3CCN(CC4CCOCC4)C[C@@H]3O2)CC1` the figure was -6.29%; with `Cn1nc(COc2cncnc2)c2c1CCN(Cc1ccccn1)C2`, 6.46%; with `Cn1nc(COc2cncnc2)c2c1CCN(Cc1ccco1)C2`, 6.82%.

With `CCS(=O)(=O)NC[C@]12COC[C@H]1CN(CCc1ccccc1)C2`, the cytotoxicity at 70.5 h is -5.39%. With `CC(C)NC(=O)N1CC[C@@H](N(C)C)[C@@H]1Cc1ccccc1` the figure was -10.3%. `Cc1noc(C)c1CNCC1COCc2c(-c3ccsc3)nnn2C1` (configuration not stated): the cytotoxicity at 70.5 h was -15.2%. Regarding `O=C(C[C@@H]1COC[C@H]2CN(CC3CCOCC3)C[C@@H]12)N1CCCCO1`, the cytotoxicity at 70.5 h was -8.58%. With `CC(=O)N1CCC2(CC1)COC(COCc1ccccn1)C2` (configuration not stated) the figure was -1.84%; with `O=C1[C@H]2CN(C3CCOCC3)C[C@H]2CN1Cc1cccc(F)c1`, 0.427%.

Take `COCCN1CCC2(COCc3c(C)nc(N4CCOCC4)nc32)C1` (configuration not stated): the cytotoxicity at 70.5 h was -1.01%. With `COc1ccc(C(=O)N2CC[C@@H]3[C@H](CC2)N(C)CCS3(=O)=O)cc1` the figure was -7.15%.

As to `Cc1cccc(CN2C[C@@H]3CN(C4CCOCC4)C[C@@H]3C2=O)c1`, the cytotoxicity at 70.5 h was -4.96%. Regarding `Fc1cnccc1CN1CCC2(CCN2c2ncccn2)C1` (configuration not stated), the cytotoxicity at 70.5 h was -7.95%. With `Fc1cnccc1CN1CCCC2(CCN(c3ncccn3)CC2)C1` the figure was -5.15%. For `CCOCc1cnc2n1CCN(Cc1nc(C)cs1)C2C` (configuration not stated), the cytotoxicity at 70.5 h was -3.1%. For `Cc1ccc(N2CC[C@@H]3CN(Cc4cc[nH]n4)C[C@@H]3C2)nn1`, the cytotoxicity at 70.5 h was -2.82%. As for `CCS(=O)(=O)NC[C@]12COC[C@H]1CN(Cc1ccncc1)C2`, the cytotoxicity at 70.5 h is -5.02%. As for `CC(C)NC(=O)N1CC[C@@H](N(C)C)[C@@H]1Cc1ccncc1`, the cytotoxicity at 70.5 h is -6.16%.

With `CS(=O)(=O)N1CCC2(CCCN(Cc3ccccn3)C2)C1` (configuration not stated), the cytotoxicity at 70.5 h is 9.19%. With `CN(Cc1cccnc1)C[C@@H]1OC[C@H]2CN(C(=O)C3CC3)CC[C@H]21` the figure was -5.43%; with `O=C1[C@H]2CN(C3CCOCC3)C[C@H]2CN1Cc1ccncc1`, -8.99%; with `CN(Cc1cccnc1)C[C@@H]1OC[C@H]2CN(Cc3ccco3)CC[C@H]21`, -2.49%.
